Numbers after ± are expanded uncertainties.
Conditions: Crystal; visual observation

| Normal melting temperature [°C] | Structure (SMILES) |
| --- | --- |
| 164.80 ± 0.4 | CC(C)NCC(O)COc1cccc2ccccc12.Cl (configuration not stated) [propranolol hydrochloride] |
| 154.50 ± 0.4 | CC(C)NCC(O)COc1ccc(CC(N)=O)cc1 (configuration not stated) [2-(4-(2-hydroxy-3-(isopropylamino)propoxy)phenyl)acetamide] |

Source: the NIST ThermoML archive (doi:10.1016/j.jct.2012.05.021)
